This note sets out measurements from patent US20250320206A1, “STAT6 DEGRADERS” (Gilead Sciences, Inc., priority 2024, published 2025).

One assay has as its target T1, STAT6 (Homo sapiens, UniProt P42226).
T1 construct: These cells express endogenous STAT6; host or cells: HeLa LgBiT clone 4.14
T1 sequence (P42226 1-847): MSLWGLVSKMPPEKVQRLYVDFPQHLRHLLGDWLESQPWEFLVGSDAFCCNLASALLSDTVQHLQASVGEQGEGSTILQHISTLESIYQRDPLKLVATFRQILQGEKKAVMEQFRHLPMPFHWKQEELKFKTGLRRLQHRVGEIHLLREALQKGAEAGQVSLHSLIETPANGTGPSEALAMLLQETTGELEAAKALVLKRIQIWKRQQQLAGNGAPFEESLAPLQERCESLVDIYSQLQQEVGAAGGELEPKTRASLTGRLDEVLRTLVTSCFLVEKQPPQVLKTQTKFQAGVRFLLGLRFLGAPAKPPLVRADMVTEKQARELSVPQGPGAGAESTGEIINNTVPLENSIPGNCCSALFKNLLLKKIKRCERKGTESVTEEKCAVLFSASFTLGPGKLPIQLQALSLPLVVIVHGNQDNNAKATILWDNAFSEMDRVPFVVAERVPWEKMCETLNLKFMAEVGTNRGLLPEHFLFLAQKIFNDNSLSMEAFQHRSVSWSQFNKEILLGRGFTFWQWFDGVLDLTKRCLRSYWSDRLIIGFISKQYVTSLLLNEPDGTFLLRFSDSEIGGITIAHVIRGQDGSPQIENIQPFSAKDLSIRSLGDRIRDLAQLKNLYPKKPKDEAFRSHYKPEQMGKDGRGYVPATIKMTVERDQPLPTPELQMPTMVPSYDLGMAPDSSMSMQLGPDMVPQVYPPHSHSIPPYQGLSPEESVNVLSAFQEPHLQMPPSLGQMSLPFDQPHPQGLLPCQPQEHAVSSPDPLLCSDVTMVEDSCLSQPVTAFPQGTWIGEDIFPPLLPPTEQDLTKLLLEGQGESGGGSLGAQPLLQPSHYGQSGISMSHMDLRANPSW
Put plainly: Stat6 Degrader Assay (HiBiT based, HeLa LgBiT clone 4.14). Format: cell-based. Particulars: HeLa LgBiT clone 4.14 HiBiT-STAT6, 4-24 h incubation; values given for compounds with >80% Emax; geometric mean; read-out: STAT6 degradation DC50. In a few lines: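 HeLa LgBiT clone 4.14 cells with CRISPR HiBiT-tagged endogenous STAT6, 5000 cells/well, compound dosed then incubated 4-24 h at 37° C, 5% CO2. Nano-Glo substrate added, 0.5 h, luminescence read as non-degraded STAT6. Terfenadine 50 μM (cell kill) defines 100% degradation.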
For orientation: With HiBiT, luminescence reflects the tagged protein that the partner subunit can reach.

Assay [1] deals with Eotaxin-3 release in human whole blood stimulated with IL-4. Put plainly: Human Whole Blood Eotaxin-3 Assay (IL-4 stimulated eotaxin-3 release). Particulars: IL-4 stimulation, 48 h, values given for compounds with >80% Emax, geometric mean. Format: cell-based. In a few lines:
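Lithium-heparin human whole blood preincubated 2 h at 37° C with 4-fold serially diluted compounds (0.5% DMSO), then stimulated with recombinant human IL-4 ([…]) for 48 h. Eotaxin-3 (CCL26) in supernatant quantified by MSD immunoassay.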

In the case of `C[C@H]1CN(Cc2ccc3c(c2)C2(CC2)C(=O)N3C2CCC(=O)NC2=O)CCN1CC1CCN(C(=O)c2cc(F)c(C3CCN(Cc4cc5c(-n6ccc7c(c6=O)CCN7)ccnc5n4C)CC3)c(F)c2)CC1` (stereo partly drawn) [Example 3u69, 3-(5′-(((S)-4-((1-(3,5-difluoro-4-(1-((1-methyl-4-(4-oxo-1,2,3,4-tetrahydro-5H-pyrrolo[3,2-c]pyridin-5-yl)-1H-pyrrolo[2,3-b]pyridin-2-yl)methyl)piperidin-4-yl)benzoyl)piperidin-4-yl)methyl)-3-methylpiperazin-1-yl)methyl)-2′-oxospiro[cyclopropane-1,3′-indolin]-1′-yl)piperidine-2,6-dione], the half-maximal degradation concentration (DC50) (usually the midpoint of the concentration-degradation curve) at STAT6 came to 1.5 nM. For the same compound, in assay [1], the midpoint of the response, the EC50, lay at 2.4 nM.
Consider `CNc1ccn(-c2ccnc3c2cc(CN2CC=C(c4c(F)cc(C(=O)N5CCC(CN6CCN(Cc7ccc8c(c7)n(C7CC7)c(=O)n8C7CCC(=O)NC7=O)C[C@@H]6C)CC5)cc4F)CC2)n3C)c(=O)c1` (stereo partly drawn) [Example 3u71, 3-(3-cyclopropyl-5-(((S)-4-((1-(3,5-difluoro-4-(1-((1-methyl-4-(4-(methylamino)-2-oxopyridin-1 (2H)-yl)-1H-pyrrolo[2,3-b]pyridin-2-yl)methyl)-1,2,3,6-tetrahydropyridin-4-yl)benzoyl)piperidin-4-yl)methyl)-3-methylpiperazin-1-yl)methyl)-2-oxo-2,3-dihydro-1H-benzo[d]imidazol-1-yl)piperidine-2,6-dione], for which the DC50 at STAT6 was found to be 5.3 nM. The EC50 (in general, the midpoint of the concentration-response curve) in assay [1] was found to be 1.8 nM.
The like results for `Cc1cc(C(=O)N2CCC(CN3CCN(Cc4cc5c(cc4F)n(C4CCC(=O)NC4=O)c(=O)n5C)CC3)CC2)cc(F)c1C1=CCN([C@@H](C)c2cc3c(-n4ccc5c(c4=O)CCN5)ccnc3n2C)CC1` (stereo partly drawn) [Example 3u74, 3-(6-fluoro-5-((4-((1-(3-fluoro-5-methyl-4-(1-((S)-1-(1-methyl-4-(4-oxo-1,2,3,4-tetrahydro-5H-pyrrolo[3,2-c]pyridin-5-yl)-1H-pyrrolo[2,3-b]pyridin-2-yl)ethyl)-1,2,3,6-tetrahydro-pyridin-4-yl)benzoyl)piperidin-4-yl)methyl)piperazin-1-yl)methyl)-3-methyl-2-oxo-2,3-dihydro-1H-benzo[d]imidazol-1-yl)piperidine-2,6-dione] were, in that order, 0.6 nM and 1.1 nM.
The like results for `CNc1cc(=O)n(-c2ccnc3c2cc(CN2CC=C(c4c(F)cc(C(=O)N5CCC(CN6CCN(Cc7ccc8c(c7)C(C)(C)C(=O)N8C7CCC(=O)NC7=O)C[C@@H]6C)CC5)cc4F)CC2)n3C)cc1F` (stereo partly drawn) [Example 3u77, 3-(5-(((S)-4-((1-(3,5-difluoro-4-(1-((4-(5-fluoro-4-(methylamino)-2-oxopyridin-1 (2H)-yl)-1-methyl-1H-pyrrolo[2,3-b]pyridin-2-yl)methyl)-1,2,3,6-tetrahydropyridin-4-yl)benzoyl)piperidin-4-yl)methyl)-3-methylpiperazin-1-yl)methyl)-3,3-dimethyl-2-oxoindolin-1-yl)piperidine-2,6-dione] were, in that order, 16.1 nM and 24.1 nM.
With `CNc1ccn(-c2ccnc3c2cc([C@H](C)N2CCC(c4c(F)cc(C(=O)N5CCC(CN6CCN(Cc7ccc8c(c7)C(C)(C)C(=O)N8C7CCC(=O)NC7=O)C[C@@H]6C)CC5)cc4F)CC2)n3C)c(=O)c1` (stereo partly drawn) [Example 3u80, 3-(5-(((S)-4-((1-(3,5-difluoro-4-(1-((S)-1-(1-methyl-4-(4-(methylamino)-2-oxopyridin-1 (2H)-yl)-1H-pyrrolo[2,3-b]pyridin-2-yl)ethyl)piperidin-4-yl)benzoyl)piperidin-4-yl)methyl)-3-methyl-piperazin-1-yl)methyl)-3,3-dimethyl-2-oxoindolin-1-yl)piperidine-2,6-dione], the half-maximal degradation concentration (DC50) on STAT6 is 0.8 nM. In assay [1], this compound displayed a concentration giving a half-maximal response (EC50) of 5 nM.
The like results for `Cc1cc(C(=O)N2CCC(CN3CCN(Cc4ccc5c(c4)n(C)c(=O)n5C4CCC(=O)NC4=O)CC3)CC2)cc(F)c1C1=CCN([C@@H](C)c2cc3c(-n4cc(F)c5c(c4=O)CCN5)ccnc3n2C)CC1` (stereo partly drawn) [Example 3u85, 3-(5-((4-((1-(3-fluoro-4-(1-((S)-1-(4-(7-fluoro-4-oxo-1,2,3,4-tetrahydro-5H-pyrrolo[3,2-c]pyridin-5-yl)-1-methyl-1H-pyrrolo[2,3-b]pyridin-2-yl)ethyl)-1,2,3,6-tetrahydropyridin-4-yl)-5-methylbenzoyl)piperidin-4-yl)methyl)piperazin-1-yl)methyl)-3-methyl-2-oxo-2,3-dihydro-1H-benzo[d]imidazol-1-yl)piperidine-2,6-dione] were, in that order, 3.1 nM and 5.2 nM.
`C[C@H]1CN(Cc2ccc3c(c2)C(C)(C)C(=O)N3C2CCC(=O)NC2=O)CCN1CC1CCN(C(=O)c2cc(F)c(C3CCN(Cc4cc5c(-n6ccc7c(c6=O)CCN7)ccnc5n4C)CC3)c(F)c2)CC1` (stereo partly drawn) [Example 3u86, 3-(5-(((S)-4-((1-(3,5-difluoro-4-(1-((1-methyl-4-(4-oxo-1,2,3,4-tetrahydro-5H-pyrrolo[3,2-c]pyridin-5-yl)-1H-pyrrolo[2,3-b]pyridin-2-yl)methyl)piperidin-4-yl)benzoyl)piperidin-4-yl)methyl)-3-methylpiperazin-1-yl)methyl)-3,3-dimethyl-2-oxoindolin-1-yl)piperidine-2,6-dione]: the DC50 at STAT6 came to 3.4 nM. For the same compound, the half-maximal effective concentration (EC50) in assay [1] was 5.1 nM.
In the case of `CNc1cc(=O)n(-c2ccnc3c2cc([C@H](C)N2CC=C(c4c(C)cc(C(=O)N5CCC(CN6CCN(Cc7ccc8c(c7)C(C)(C)C(=O)N8C7CCC(=O)NC7=O)CC6)CC5)cc4F)CC2)n3C)cc1F` (stereo partly drawn) [Example 3u87, 3-(5-((4-((1-(3-fluoro-4-(1-((S)-1-(4-(5-fluoro-4-(methylamino)-2-oxopyridin-1 (2H)-yl)-1-methyl-1H-pyrrolo[2,3-b]pyridin-2-yl)ethyl)-1,2,3,6-tetrahydropyridin-4-yl)-5-methylbenzoyl)piperidin-4-yl)methyl)piperazin-1-yl)methyl)-3,3-dimethyl-2-oxoindolin-1-yl)piperidine-2,6-dione], the half-maximal degradation concentration (DC50) at STAT6 was determined as 3.5 nM. In assay [1], this compound yielded an EC50 of 15.2 nM.
For the compound `CNc1cc(=O)n(-c2ccnc3c2cc([C@H](C)N2CC=C(c4c(C)cc(C(=O)N5CCC(CN6CCN(Cc7ccc8c(c7)n(C)c(=O)n8C7CCC(=O)NC7=O)C[C@@H]6C)CC5)cc4F)CC2)n3C)cc1F` (stereo partly drawn) [Example 3u90, 3-(5-(((S)-4-((1-(3-fluoro-4-(1-((S)-1-(4-(5-fluoro-4-(methylamino)-2-oxopyridin-1 (2H)-yl)-1-methyl-1H-pyrrolo[2,3-b]pyridin-2-yl)ethyl)-1,2,3,6-tetrahydropyridin-4-yl)-5-methylbenzoyl)piperidin-4-yl)methyl)-3-methylpiperazin-1-yl)methyl)-3-methyl-2-oxo-2,3-dihydro-1H-benzo[d]imidazol-1-yl)piperidine-2,6-dione], at STAT6, the DC50 was 0.3 nM. In assay [1], this compound returned an EC50 of 0.9 nM.
The corresponding values for `CNc1cc(=O)n(-c2ccnc3c2cc(CN2CCC(c4c(F)cc(C(=O)N5CCC(CN6CCN(Cc7cc8c(cc7F)N(C7CCC(=O)NC7=O)C(=O)C87CC7)CC6)CC5)cc4F)CC2)n3C)cc1F` (stereo not shown) [Example 3u93, 3-(5′-((4-((1-(3,5-difluoro-4-(1-((4-(5-fluoro-4-(methylamino)-2-oxopyridin-1 (2H)-yl)-1-methyl-1H-pyrrolo[2,3-b]pyridin-2-yl)methyl)piperidin-4-yl)benzoyl)piperidin-4-yl)methyl)piperazin-1-yl)methyl)-6′-fluoro-2′-oxospiro[cyclopropane-1,3′-indolin]-1′-yl)piperidine-2,6-dione] are 26.9 nM and 16.6 nM.
The like results for `C[C@H]1CN(Cc2ccc3c(c2)C2(CC2)C(=O)N3C2CCC(=O)NC2=O)CCN1CC1CCN(C(=O)c2cc(F)c(C3CCN(Cc4cc5c(-n6cc(F)c(N)c(F)c6=O)ccnc5n4C)CC3)c(F)c2)CC1` (stereo partly drawn) [Example 3u96, 3-(5′-(((S)-4-((1-(4-(1-((4-(4-amino-3,5-difluoro-2-oxopyridin-1 (2H)-yl)-1-methyl-1H-pyrrolo[2,3-b]pyridin-2-yl)methyl)piperidin-4-yl)-3,5-difluorobenzoyl)piperidin-4-yl)methyl)-3-methylpiperazin-1-yl)methyl)-2′-oxospiro[cyclopropane-1,3′-indolin]-1′-yl)piperidine-2,6-dione] were, in that order, 4.1 nM and 1 nM.
